Assay results published in US10307383B2, “Cosmetic composition for preventing or ameliorating hypersensitive skin comprising cedrol or derivatives thereof, or pharmaceutically acceptable salts thereof” (University of Seoul Industry Cooperation Foundation, priority 2017, dated 2019).
Converted amounts (≈) assume the structure as drawn.

How the values were obtained:
[1] = test system: psoriasis induced mice (imiquimod); experiment: Ear thickness reduction effect in the psoriasis induced mice (PASI); assay type: in vivo, Balb/c mouse; settings: day 7, 100 mg/kg oral once a day, IMQ applied; IMQ alone 3.5
Method: (§1) To investigate the delayed effect of cedrol, cedryl acetate, and alpha-cedrene on the development of psoriasis, total 5 groups of mice were prepared (8 mice/group). First, the hair of the entire back of the 8-week-old male Balb/c mouse whose immune system was weakened was removed by using a hair clipper (Kimlaube Hair pen 325,327, Rikei, Korea). In the middle of the shaved back of the mouse, 2 mg of imiquimod (3M Health Care Limited, England) was applied in the area of 2 cm×1.5 cm and also 1,125 mg of imiquimod was applied on the right ear of the mouse every day once a day to induce psoriasis.
(§2) The mice prepared above were divided into the distilled water treated group (IMQ), the cedrol treated group (C), the cedryl acetate treated group (CA), and the alpha-cedrene treated group (CE). At this time, the mice were orally treated with distilled water at the concentration of 200 μl/mouse and cedrol or its derivatives at the concentration of 200 μl/mouse (100 mg/kg). The day when distilled water or the compound administration started was recorded as day 0 and the administration was performed once a day for a week, during which photo-recording was performed every day (FIGS. 2A˜2D). In the meantime, instead of applying imiquimod, 40 mg of vaseline was applied on the back of the control group (CONT) and 22.5 mg of vaseline was applied on the right ear of the control group. And the control group was orally administered with distilled water (200 μl/mouse).
Then, the psoriasis area severity index (PASI) was calculated with the range of 1˜4 to confirm the reduction effect of the compounds on the ear thickness.

[2] = test system: psoriasis induced mice (imiquimod); experiment: Skin pain reduction effect in the psoriasis induced mice (back pinch, mice counted); assay type: in vivo, Balb/c mouse; settings: IMQ applied, 8 mice/group
Method: as §1, §2
When the back of the psoriasis induced mice orally administered with cedrol, cedryl acetate, and alpha-cedrene of Example <2-1> was pinched, those mice who sound painfully with strong rejection were counted. Skin pain is a symptom of psoriasis, and when IMQ is applied, skin pain becomes stronger as time goes by.

[3] = test system: psoriasis induced mice (imiquimod); experiment: Recovery effect on hemorrhage spots of the psoriasis induced mice; assay type: in vivo, Balb/c mouse
Method: (§3) Imiquimod was applied to the psoriasis induced mice which had developed psoriasis for a week in Example <2-1>. The application was stopped 8 days after the application began. The groups CON and IMQ were treated with distilled water, the group C was treated with cedrol, the group CA was treated with cedryl acetate, the group CE was treated with alpha-cedrene alone at the concentration of 100 mg/kg in 200 μl, every day via oral-administration. Day 8 was the day the imiquimod application was stopped, since then the compounds were administered for 1 week once a day, during which photo-recording was performed (FIGS. 13A˜13D).
The psoriasis induced mice orally administered with cedrol, cedryl acetate, and alpha-cedrene of Example <3-1> were observed by the naked eye, and the number of mice showing the recovery of hemorrhage spots was counted.

[4] = test system: psoriasis induced mice (imiquimod); experiment: Recovery effect on keratosis of the psoriasis induced mice after termination of imiquimod (PASI); assay type: in vivo, Balb/c mouse
Method: as §3
Then, the psoriasis area severity index (Psoriasis Area Severity Index, PASI) was calculated, based on which the recovery effect on keratosis was evaluated.

[5] = test system: psoriasis induced mice (imiquimod); experiment: Recovery effect on skin wrinkles of the psoriasis induced mice; assay type: in vivo, Balb/c mouse
Method: as §3
The psoriasis induced mice orally administered with cedrol, cedryl acetate, and alpha-cedrene of Example <3-1> were observed by the naked eye, and the number of mice showing the recovery of skin wrinkles was counted.

[6] = test system: psoriasis induced mice (imiquimod); experiment: Skin wrinkle reduction effect in the psoriasis induced mice; assay type: in vivo, Balb/c mouse; settings: IMQ applied, 8 mice/group
Method: as §1, §2
The psoriasis induced mice orally administered with cedrol, cedryl acetate, and alpha-cedrene of Example <2-1> were observed by the naked eye, and the number of mice showing skin wrinkles was counted. Skin wrinkle is a symptom of psoriasis, and when IMQ is applied, skin keratinization increases and accordingly skin wrinkles are formed as time goes by.

IL-17A expression = experiment: IL-17A inhibition assay in IL-17 luciferase-(LUCPorter) stable reporter cell line; settings: for Inhibition of IL-17A expression (%) Experiment-1 / Inhibition of IL-17A expression (%) Experiment-2 / Inhibition of IL-17A expression (%) Experiment-3: 6 hours; for expression of IL-17A (luciferase units): control group 2,582 units
[7] = test system: psoriasis induced mice (imiquimod); experiment: Skin flair reduction effect in the psoriasis induced mice (PASI); assay type: in vivo, Balb/c mouse; settings: day 7, 100 mg/kg oral once a day, IMQ applied; IMQ alone 4.00
Method: as §1, §2
Then, the psoriasis area severity index (PASI) was calculated to confirm the reduction effect of the compounds on skin flair. Skin flair is a symptom of psoriasis. The application of IMQ can induce skin flair.

[8] = test system: psoriasis induced mice (imiquimod); experiment: Keratosis reduction effect in the psoriasis induced mice (PASI); assay type: in vivo, Balb/c mouse; settings: day 7, 100 mg/kg oral once a day, IMQ applied; IMQ alone 3.8
Method: as §1, §2
Then, the psoriasis area severity index (PASI) was calculated to confirm the reduction effect of the compounds on keratosis. Keratosis is a symptom of psoriasis. The application of IMQ can induce keratosis.

[9] = test system: psoriasis induced mice (imiquimod); experiment: Skin hemorrhage spot reduction effect in the psoriasis induced mice; assay type: in vivo, Balb/c mouse; settings: IMQ applied, 8 mice/group
Method: as §1, §2
The psoriasis induced mice orally administered with cedrol, cedryl acetate, and alpha-cedrene of Example <2-1> were observed by the naked eye, and the number of mice showing hemorrhage spots was counted. Hemorrhage spot is a symptom of psoriasis, and when IMQ is applied, the number of skin hemorrhage spots increases as time goes by.

[10] = test system: psoriasis induced mice (imiquimod); experiment: Recovery effect on ear thickness of the psoriasis induced mice after termination of imiquimod (PASI); assay type: in vivo, Balb/c mouse
Method: as §3
The psoriasis area severity index (Psoriasis Area Severity Index, PASI) was given from the point 1 to point 4, based on which the recovery effect on the ear thickness was evaluated.

[11] = 100 mg/kg oral after termination of imiquimod
[12] = day 8, 100 mg/kg oral, 8 mice/group
[13] = day 8 (imiquimod application stopped), 100 mg/kg oral
[14] = Homo sapiens, read-out: Average Inhibition (%)

C[C@@H]1CC[C@H]2C(C)(C)[C@H]3C[C@@]12CC[C@@]3(C)O [cedrol, Cedrol]
mean ear thickness point (PASI) [1]: 2.6 point
number of mice showing skin pain ([2]; day 4, 100 mg/kg oral): one
number of mice showing skin pain ([2]; day 5, 100 mg/kg oral): no mice
hemorrhage spot recovery effect, comparison in words [3, 11]: strongest recovery effect
number of mice showing hemorrhage spots [3, 12]: 6 mice
number of mice showing hemorrhage spots ([3]; day 12, 100 mg/kg oral after termination of imiquimod): no mouse
keratosis recovery effect, comparison in words [4, 11]: strongest recovery effect
PASI reflecting keratosis [4, 13]: 3.0±0.6 point
keratosis recovered to normal (in words) ([4]; on day 15, 100 mg/kg oral after termination of imiquimod): all 8 mice were recovered to normal
skin wrinkle recovery effect, comparison in words [5, 11]: strongest recovery effect
number of mice showing skin wrinkles ([5]; after day 15, 100 mg/kg oral after termination of imiquimod): no mouse
number of mice showing skin wrinkles [5, 12]: 5 mice
number of mice showing skin wrinkles ([6]; day 5, 100 mg/kg oral): one
number of mice showing skin wrinkles ([6]; day 7, 100 mg/kg oral, IMQ alone 3): 2 mice
expression of IL-17A, % by the control (IL-17A expression; 10 μg/ml): 67 % by the control
Inhibition of IL-17A expression (%) Experiment-1 (IL-17A expression; 10 μg/ml): 24%
Inhibition of IL-17A expression (%) Experiment-2 (IL-17A expression; 10 μg/ml): 0%
Inhibition of IL-17A expression (%) Experiment-3 (IL-17A expression; 10 μg/ml): 33%
expression of IL-17A (luciferase units) (IL-17A expression; 10 μg/ml): 1,718±174 units
expression of IL-17A, % by the control (IL-17A expression; 100 μg/ml): 57 % by the control
Inhibition of IL-17A expression (%) Experiment-1 (IL-17A expression; 100 μg/ml): 21%
Inhibition of IL-17A expression (%) Experiment-2 (IL-17A expression; 100 μg/ml): 14%
Inhibition of IL-17A expression (%) Experiment-3 (IL-17A expression; 100 μg/ml): 43%
expression of IL-17A (luciferase units) (IL-17A expression; 100 μg/ml): 1,460±124 units
expression of IL-17A, % by the control (IL-17A expression; 1,000 μg/ml): 28 % by the control
Inhibition of IL-17A expression (%) Experiment-1 (IL-17A expression; 1000 μg/ml): 76%
Inhibition of IL-17A expression (%) Experiment-2 (IL-17A expression; 1000 μg/ml): 59%
Inhibition of IL-17A expression (%) Experiment-3 (IL-17A expression; 1000 μg/ml): 72%
expression of IL-17A (luciferase units) (IL-17A expression; 1,000 μg/ml): 715±45 units
suppression of the expression of IL-17A (in words) (IL-17A expression; 10, 100, or 1,000 μg/ml): dose-dependently
inhibition at 10 µg/mL (IL-17A expression; [14]): 19%
inhibition at 100 µg/mL (IL-17A expression; [14]): 26%
inhibition at 1000 µg/mL (IL-17A expression; [14]): 69%
IC50 (IL-17A expression; Homo sapiens, read-out: IC50 to inhibit the IL-17A expression by 50%): 726 µg/mL (≈ 3.26 mM)
skin flair mean point (PASI) [7]: 3.33 point
keratosis mean point (PASI) [8]: 3.00 point
number of mice showing hemorrhage spots ([9]; day 4, 100 mg/kg oral): one
number of mice showing hemorrhage spots ([9]; day 7, 100 mg/kg oral, IMQ alone 5): 3 mice
PASI reflecting the ear thickness [10, 13]: 4.0±0.6 point
PASI reflecting the ear thickness ([10]; day 16, 100 mg/kg oral once a day after termination of imiquimod): 0.7±0.6 point
